# Laboratory results from patent US20250332178A1, “METHODS OF TREATING MYCOBACTERIAL INFECTIONS USING TETRACYCLINE COMPOUNDS” (priority 2018, published 2025).
# Columns and labels:
# [1] = in vivo; cited from earlier work
# [2] = Stability of antimicrobial drugs, large-plate agar diffusion assay; assay type: physicochemical; conditions: within the first 24 hours
# Experimental: Antimicrobial activity over time was assessed using the standard large-plate agar diffusion assay as previously described in detail (Bennett et al., Appl. Microbiol. 1966, 14 (2): 170-7). In short, a Staphylococcus aureus strain susceptible to omadacycline and a Micrococcus luteus strain susceptible to tigecycline were plated onto solid diagnostic sensitivity test (D.S.T.) agar (Oxoid, Hampshire, UK). A two-fold increasing standard concentration series was prepared.
# [3] = 52 patients, M. abscessus and M. chelonae infections; Wallace et al.; cited from earlier work
SMILES,24-hour area under the curve compared to tigecycline [1],decline in concentration [2] [%],"dose reductions due to nausea, vomiting or anorexia [3]"
"CN(C)c1cc(CNCC(C)(C)C)c(O)c2c1C[C@H]1C[C@H]3C(N(C)C)C(O)=C(C(N)=O)C(=O)[C@@]3(O)C(O)=C1C2=O (stereo partly drawn) [Omadacycline, (4aS,5aR,12aS)-4,7-bis(dimethylamino)-3,10,12,12a-tetrahydroxy-9-((neopentylamino)methyl)-1,11-dioxo-1,4,4a,5,5a,6,11,12a-octahydrotetracene-2-carboxamide]",approximately three-fold higher,20,–
"CN(C)c1cc(NC(=O)CNC(C)(C)C)c(O)c2c1C[C@H]1C[C@H]3[C@H](N(C)C)C(O)=C(C(N)=O)C(=O)[C@@]3(O)C(O)=C1C2=O [Tigecycline, tigecycline]",–,–,Approximately half of the patients had dose reductions
